From patent US20200131669A1, “CYCLIC PEPTIDE COMPOUND HAVING HIGH MEMBRANE PERMEABILITY, AND LIBRARY CONTAINING SAME” (Chugai Seiyaku Kabushiki Kaisha, priority 2017, published 2020)
Starred links: 1 amine or outer side, 2 acyl side, 3 side chain; linkers in the order of their positions; H or OH if unused. Positions of bridges follow the written chain, without caps; N, C: chain ends. Non-standard residues stand in square brackets, D forms with d. Residues, ends and D or L forms follow the SMILES beside them. ξ: configuration not given here. *: point of attachment. X17 = O=C([C@H](CCCC(O)C(F)(F)F)N[*:1])[*:2]; hPhe(3-Cl) = N[C@@H](CCc1cccc(Cl)c1)C(=O)O; NMeF = CN[C@@H](Cc1ccccc1)C(=O)O; NMeGABA = CN(CCCC(=O)[*:2])[*:1]; NMeI = CC[C@H](C)[C@H](NC)C(=O)O; dNMeF = CN[C@H](Cc1ccccc1)C(=O)O; hPhe = N[C@@H](CCc1ccccc1)C(=O)O; CH2CH(OH)CF3 = OC(C*)C(F)(F)F; NMeL = CN[C@@H](CC(C)C)C(=O)O; dNMeL = CN[C@H](CC(C)C)C(=O)O; Propyl(2R-OH) = C[C@@H](O)C*; NMeV = CN[C@H](C(=O)O)C(C)C; NMeAbu = CC[C@H](NC)C(=O)O; NMeA = CN[C@@H](C)C(=O)O; Piperidide = C1CCN(*)CC1; NBuGly = CCCCNCC(=O)O; X11 = FC(F)C(F)(F)C*; Ethyl(2-OH) = OCC*; X2 = Fc1cncc(C*)c1; Bn = c1ccc(C*)cc1; ξS = NC(CO)C(=O)O; Sar = CNCC(=O)O; tBu = CC(C)(C)*

Tested on: not listed separately
Experiment: Caco-2 membrane permeability, improved method as used in the following Examples (96-well, 20 to 24 h preincubation)
Format: in vitro ADME
Conditions: Caco-2, Caco-2
Procedure, shortened: (§1)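 Papp (cm/sec) was derived from LC/MS of basal samples collected 180 min after apical dosing in FaSSIF/HBSS pH 6.0 with 1% DMSO, against a basal HBSS pH 7.4 receiver containing 4% BSA. Three-week Caco-2 cultures were first preincubated with compound in DMEM+FaSSIF at 37 °C for 20–24 h.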

Row | SMILES | Papp A→B
1 | CC[C@H](C)[C@@H]1NC(=O)[C@H](CC(C)C)N(C)C(=O)[C@H](CCCC(O)C(F)(F)F)NC(=O)[C@H](Cc2ccccc2)N(C)C(=O)CN(C)C(=O)C[C@@H](C(=O)N2CCCCC2)NC(=O)[C@H](CC(C)C)N(C)C(=O)[C@H](COC(C)(C)C)NC(=O)[C@H](CC(C)C)N(C)C(=O)[C@H](Cc2ccccc2)N(C)C(=O)CN(C)C1=O (stereo partly drawn) [pd502] ([Sar][NMeF][X17][NMeL]I[Sar][NMeF][NMeL]S(tBu)[NMeL]D-Piperidide; lactam N-11) | 1 ×10⁻⁶ cm/s

Same assay, conditions: human, Caco-2, Caco-2

Row | SMILES | Papp A→B at 180 min
2 | CC(C)C[C@H]1C(=O)N[C@@H](C(C)C)C(=O)N(C)[C@@H](Cc2ccccc2)C(=O)N(C)[C@@H](Cc2ccccc2)C(=O)N[C@@H](COC(C)(C)C)C(=O)N(C)[C@@H](CC(C)C)C(=O)N[C@@H](COC[C@@H](C)O)C(=O)N(C)[C@@H](CC(C)C)C(=O)N(C)[C@@H](CC(C)C)C(=O)N[C@H](C(=O)N2CCCCC2)CC(=O)N(C)CCCC(=O)N1C [pd493] ([NMeGABA][NMeL]V[NMeF][NMeF]S(tBu)[NMeL]S(Propyl(2R-OH))[NMeL][NMeL]D-Piperidide; lactam N-11) | 1.3 ×10⁻⁶ cm/s
3 | CC[C@H](C)[C@H]1C(=O)N[C@@H](COC[C@@H](C)O)C(=O)N(C)CC(=O)N(C)[C@@H](CC(C)C)C(=O)N[C@H](C(=O)N2CCCCC2)CC(=O)N(C)[C@@H](C)C(=O)N[C@@H](CC(C)C)C(=O)N(C)[C@@H](CC(C)C)C(=O)N(C)[C@@H](Cc2ccccc2)C(=O)N[C@@H](CC(C)C)C(=O)N(C)[C@@H](Cc2ccccc2)C(=O)N1C [pd494] ([NMeA]L[NMeL][NMeF]L[NMeF][NMeI]S(Propyl(2R-OH))[Sar][NMeL]D-Piperidide; lactam N-11) | 5.2 ×10⁻⁶ cm/s
4 | CC[C@H](C)[C@H]1C(=O)N[C@@H](C(C)C)C(=O)N(C)CC(=O)N(C)[C@@H](CC(C)C)C(=O)N[C@H](C(=O)N2CCCCC2)CC(=O)N(C)[C@@H](C)C(=O)N[C@@H](COC[C@@H](C)O)C(=O)N(C)[C@H](CC(C)C)C(=O)N(C)[C@@H](Cc2ccccc2)C(=O)N[C@@H](CC(C)C)C(=O)N(C)[C@@H](Cc2ccccc2)C(=O)N1C [pd495] ([NMeA]S(Propyl(2R-OH))[dNMeL][NMeF]L[NMeF][NMeI]V[Sar][NMeL]D-Piperidide; lactam N-11) | 3.7 ×10⁻⁶ cm/s
5 | CCCCN1CC(=O)N(C)[C@H](Cc2ccccc2)C(=O)N(C)[C@@H](CC(C)C)C(=O)N[C@@H](COC(C)(C)C)C(=O)N(C)[C@@H](CC(C)C)C(=O)N[C@H](C(=O)N2CCCCC2)CC(=O)N(C)CC(=O)N(C)[C@@H](Cc2ccccc2)C(=O)N[C@@H](C(C)C)C(=O)N(C)[C@@H](CC(C)C)C(=O)N[C@@H](COC[C@@H](C)O)C1=O [pd496] ([Sar][NMeF]V[NMeL]S(Propyl(2R-OH))[NBuGly][dNMeF][NMeL]S(tBu)[NMeL]D-Piperidide; lactam N-11) | 1 ×10⁻⁶ cm/s
6 | CC[C@H](C)[C@@H]1NC(=O)[C@H](CC(C)C)N(C)C(=O)[C@H](COC[C@@H](C)O)NC(=O)[C@H](Cc2ccccc2)N(C)C(=O)CN(C)C(=O)C[C@@H](C(=O)N2CCCCC2)NC(=O)[C@H](CC(C)C)N(C)C(=O)[C@H](COC(C)(C)C)NC(=O)[C@H](CC(C)C)N(C)C(=O)[C@H](Cc2ccccc2)N(C)C(=O)CN(C)C1=O [pd497] ([Sar][NMeF]S(Propyl(2R-OH))[NMeL]I[Sar][NMeF][NMeL]S(tBu)[NMeL]D-Piperidide; lactam N-11) | 3.3 ×10⁻⁶ cm/s
7 | CC[C@H](C)[C@H]1C(=O)N[C@@H](COCCO)C(=O)N(C)CC(=O)N(C)[C@@H](CC(C)C)C(=O)N[C@H](C(=O)N2CCCCC2)CC(=O)N(C)[C@@H](C)C(=O)N[C@@H](CC(C)C)C(=O)N(C)[C@@H](CC(C)C)C(=O)N(C)[C@@H](Cc2ccccc2)C(=O)N[C@@H](CC(C)C)C(=O)N(C)[C@@H](Cc2ccccc2)C(=O)N1C [pd499] ([NMeA]L[NMeL][NMeF]L[NMeF][NMeI]S(Ethyl(2-OH))[Sar][NMeL]D-Piperidide; lactam N-11) | 4.7 ×10⁻⁶ cm/s
8 | CC[C@H](C)[C@H]1C(=O)N[C@@H](C(C)C)C(=O)N(C)CC(=O)N(C)[C@@H](CC(C)C)C(=O)N[C@H](C(=O)N2CCCCC2)CC(=O)N(C)[C@@H](C)C(=O)N[C@@H](COCCO)C(=O)N(C)[C@H](CC(C)C)C(=O)N(C)[C@@H](Cc2ccccc2)C(=O)N[C@@H](CC(C)C)C(=O)N(C)[C@@H](Cc2ccccc2)C(=O)N1C [pd500] ([NMeA]S(Ethyl(2-OH))[dNMeL][NMeF]L[NMeF][NMeI]V[Sar][NMeL]D-Piperidide; lactam N-11) | 2.2 ×10⁻⁶ cm/s
9 | CC[C@H]1C(=O)N(C)[C@@H](Cc2ccccc2)C(=O)N[C@@H](CC(C)C)C(=O)N(C)[C@@H](Cc2ccccc2)C(=O)N(C)[C@@H](C(C)C)C(=O)N[C@@H](COCC(O)C(F)(F)F)C(=O)N(C)CC(=O)N(C)[C@@H](CC(C)C)C(=O)N[C@H](C(=O)N2CCCCC2)CC(=O)N(C)[C@@H](C)C(=O)N[C@@H](CC(C)C)C(=O)N1C (stereo partly drawn) [pd503] ([NMeA]L[NMeAbu][NMeF]L[NMeF][NMeV]S(CH2CH(OH)CF3)[Sar][NMeL]D-Piperidide; lactam N-11) | 2 ×10⁻⁶ cm/s
10 | CC[C@H](C)[C@@H]1NC(=O)[C@H](CC(C)C)N(C)C(=O)[C@H](COCC(O)C(F)(F)F)NC(=O)[C@H](Cc2ccccc2)N(C)C(=O)CN(C)C(=O)C[C@@H](C(=O)N2CCCCC2)NC(=O)[C@H](CC(C)C)N(C)C(=O)[C@H](COC(C)(C)C)NC(=O)[C@H](CC(C)C)N(C)C(=O)[C@H](Cc2ccccc2)N(C)C(=O)CN(C)C1=O (stereo partly drawn) [pd504] ([Sar][NMeF]S(CH2CH(OH)CF3)[NMeL]I[Sar][NMeF][NMeL]S(tBu)[NMeL]D-Piperidide; lactam N-11) | 4.1 ×10⁻⁶ cm/s

Tested on: Caco-2 cells
Experiment: as above
Format: in vitro ADME
Conditions: human, Caco-2, 180 min
Procedure, shortened: as §1

Row | SMILES | Caco-2
11 | CC[C@H](C)[C@@H]1NC(=O)[C@H](Cc2ccccc2)N(C)C(=O)CN(C)C(=O)C[C@@H](C(=O)N2CCCCC2)NC(=O)[C@H]([C@@H](C)CC)N(C)C(=O)C(COCc2ccccc2)NC(=O)[C@H](CC(C)C)N(C)C(=O)[C@H](Cc2ccccc2)N(C)C(=O)CN(C)C(=O)[C@H]([C@@H](C)O)NC(=O)[C@H](CC(C)C)N(C)C1=O (stereo partly drawn) [pd178] ([Sar][NMeF]I[NMeL]T[Sar][NMeF][NMeL][ξS](Bn)[NMeI]D-Piperidide; lactam N-11) | 2.5e-06 cm/s
12 | CC(C)C[C@H]1C(=O)N[C@@H](COC(C)(C)C)C(=O)N(C)[C@@H](Cc2ccccc2)C(=O)N(C)[C@@H](C(C)C)C(=O)N[C@H](C(=O)N2CCCCC2)CC(=O)N[C@H](C)C(=O)N(C)[C@@H](Cc2ccccc2)C(=O)NC(COc2cccc(Cl)c2)C(=O)N(C)[C@@H](C(C)C)C(=O)N[C@@H]([C@@H](C)O)C(=O)N(C)CC(=O)N1C (stereo partly drawn) [pd185] | 2.2e-06 cm/s
13 | CC[C@H](C)[C@H]1C(=O)N[C@@H]([C@@H](C)O)C(=O)N(C)CC(=O)N(C)[C@@H](C)C(=O)N[C@H](C(=O)N2CCCCC2)CC(=O)N(C)[C@@H](C)C(=O)N[C@@H](C(C)C)C(=O)N(C)[C@@H](CC(C)C)C(=O)N(C)[C@@H](Cc2ccccc2)C(=O)NC(COc2cccc(Cl)c2)C(=O)N(C)[C@@H](Cc2ccccc2)C(=O)N1C (stereo partly drawn) [pd186] | 1.8e-06 cm/s
14 | CC[C@H](C)[C@H]1C(=O)N[C@@H]([C@@H](C)O)C(=O)N(C)CC(=O)N(C)[C@@H](CC(C)C)C(=O)N[C@H](C(=O)N2CCCCC2)CC(=O)N(C)[C@@H](C)C(=O)NC(COc2cccc(Cl)c2)C(=O)N(C)[C@@H](CC(C)C)C(=O)N(C)[C@@H](Cc2ccccc2)C(=O)N[C@@H](C)C(=O)N(C)[C@@H](Cc2ccccc2)C(=O)N1C (stereo partly drawn) [pd188] | 1.3e-06 cm/s
15 | CC(C)C[C@H]1C(=O)N[C@H](C(=O)N2CCCCC2)CC(=O)N[C@H](C)C(=O)N(C)[C@@H](CC(C)C)C(=O)N[C@@H](COC(C)(C)C)C(=O)N(C)[C@@H](C)C(=O)N(C)[C@@H](CC(C)C)C(=O)N(C)[C@@H](C)C(=O)N[C@@H]([C@@H](C)O)C(=O)N(C)[C@@H](Cc2ccccc2)C(=O)N[C@@H](CCc2ccccc2)C(=O)N1C [pd309] ([dA][NMeL]S(tBu)[NMeA][NMeL][NMeA]T[NMeF][hPhe][NMeL]D-Piperidide; lactam N-11) | 1.1e-06 cm/s
16 | CC[C@H](C)[C@H]1C(=O)N[C@@H]([C@@H](C)O)C(=O)N(C)CC(=O)N(C)[C@@H](CC(C)C)C(=O)N[C@H](C(=O)N2CCCCC2)CC(=O)N(C)[C@@H](C(C)C)C(=O)N[C@@H](COCc2cncc(F)c2)C(=O)N(C)[C@@H](CC(C)C)C(=O)N(C)[C@@H](Cc2ccccc2)C(=O)N[C@@H](CC(C)C)C(=O)N(C)[C@@H](Cc2ccccc2)C(=O)N1C [pd347] ([NMeV]S(X2)[NMeL][NMeF]L[NMeF][NMeI]T[Sar][NMeL]D-Piperidide; lactam N-11) | 1.1e-06 cm/s
17 | CC[C@H](C)[C@H]1C(=O)N[C@@H]([C@@H](C)O)C(=O)N(C)CC(=O)N(C)[C@@H](CC(C)C)C(=O)N[C@H](C(=O)N2CCCCC2)CC(=O)N(C)[C@@H](C)C(=O)N[C@@H](CC(C)C)C(=O)N(C)[C@@H](CC(C)C)C(=O)N(C)[C@@H](Cc2ccccc2)C(=O)N[C@@H](COCC(F)(F)C(F)F)C(=O)N(C)[C@@H](Cc2ccccc2)C(=O)N1C [pd348] ([NMeA]L[NMeL][NMeF]S(X11)[NMeF][NMeI]T[Sar][NMeL]D-Piperidide; lactam N-11) | 1.1e-06 cm/s
18 | CC[C@H](C)[C@@H]1NC(=O)[C@H](Cc2ccccc2)N(C)C(=O)CN(C)C(=O)C[C@@H](C(=O)N2CCCCC2)NC(=O)[C@H](C(C)C)N(C)C(=O)[C@H](CCc2cccc(Cl)c2)NC(=O)[C@H](CC(C)C)N(C)C(=O)[C@H](CC(C)C)N(C)C(=O)CN(C)C(=O)[C@H]([C@@H](C)O)NC(=O)[C@H](CC(C)C)N(C)C1=O [pd358] ([Sar][NMeF]I[NMeL]T[Sar][NMeL][NMeL][hPhe(3-Cl)][NMeV]D-Piperidide; lactam N-11) | 1.1e-06 cm/s
